Marks after values point to notes of the source that are not given here.
Legend:
[1] = test system: high fat-induced NAFLD/NASH mice; experiment: High fat-induced NAFLD/NASH mice (Experimental Example 5); format: in vivo, C57BL/6J male mice
Text: Build of NAFLD/NASH (non-alcoholic fatty liver disease/nonalcoholic steatohepatitis) mouse models: six-week-old C57BL/6J male mice were fed with high-fat feed, and were weighed each week to record the body weights of the mice; and after high-fat feeding for 8 weeks, the mice were weighed to determine whether the modeling is successful.
According to the body weight values (40 g was generally considered as a screening critical point), the successfully-modeled mice were divided into a blank control group, a model control group and the compound 2-1 (1 mg/kg) group, wherein the average body weights of all groups were consistent, without any significant difference. The mice were administered once every day (QD) (8 # intragastric syringe) for 3 weeks.
24 hrs after the last administration, blood was sampled from the inner canthus; the sampled blood stood at room temperature for 1 to 2 hrs, and was centrifuged at 4,000 rpm for 15 mins, and the serum was collected; the mice were euthanized thereafter, and a large liver lobe and a small liver lobe were cut off and put into 10% neutral formalin, and the remainings were stored in a refrigerator at −80° C. For the detailed administration method, administration dosage and administration route, see the table below.
Route, dosage and regimen of administration in experiment for influence of compounds of the present invention on high fat-induced NAFLD/NASH mice
2.1 Experimental Observation Index • 1) Body weight: Weighing was performed once every week from the beginning of modeling. Weighing was performed once every week after administration. • 2) Analysis of morphological and pathological changes of livers: Liver tissues were separated, collected and photographed. The livers were weighed, and ratios of liver weight/body weight were calculated. The tissue was sliced and stained by H&E (NAFLD score, NAS). • 3) Assay of biochemical indexes of livers: TG in the livers was extracted according to the manual of a tissue cell triglyceride assay kit (purchased from Applygen Technologies Inc. E1013), and assayed. • 4) Assay of biochemical indexes of serums: LDL in serums was assayed with a full-automatic biochemical analyzer (Hitachi 7180, model: X594).
Data were represented by mean±S.E.M., and one-way analysis of variance (ANOVA) followed LSD or independent-sample T test were performed on the statistical data with statistical software SPSS 16.0. Statistical differences were tested, and p<0.05 was defined as a significant difference.

[2] = Liver microsome metabolism stability, human liver microsome; format: in vitro ADME; settings: 0.5 mg protein/mL, test sample 1 μM, β-NADPH
Method: Test samples: the homemade compounds 1, 2, 4 and 5 of the present invention (for their chemical names and preparation methods, see the preparation example for each compound).
a mixed liver microsomes of SD rat and human both purchased from XenoTech, with batch Nos.: 1410271 (SD rat) and 1410013 (human) respectively, wherein the microsomal protein concentrations both were 20 mg mL^−1;
experimental promoter β-NADPH purchased from Roche (batch No.: 524F0231); and a phosphate buffer solution (pH 7.4) made in the lab.
An appropriate amount of the test sample powder was weighed accurately, and dissolved in an appropriate amount of dimethyl sulfoxide (DMSO) to a concentration of 1 mM; and the solution was then diluted by 20 times with methanol to yield a 50 μM working solution.
(1) According to the proportions in table 3 “Composition of the incubation system for liver microsome metabolism stability experiment” above, for each compound, 6 mL of PBS (100 mM), 0.6 mL of MgCl2 solution (20 mM) and 3.66 mL of H2O were made into a mixed solution 1 for the incubation system (not containing the microsomes, the test sample and β-NADPH).
(2) Liver microsomes (20 mg protein/mL) were taken from a refrigerator (−80° C.), and were placed on a thermostatic water bath oscillator (37° C.) and pre-incubated for 3 mins.
(3) For each compound, 1.88 mL of the mixed solution 1 for the incubation system was added with 55 μL of microsomes to obtain a mixed solution 2 for the incubation system (not containing the test sample and β-NADPH).
(4) Sample group (containing the microsomes and D-NADPH): 616 μL of mixed solution 2 for the incubation system was added with 14 μL of the test sample working solution (with a concentration of 50 μM), and with 70 μL of R-NADPH working solution (10 mM). The resulted solution was well mixed, and the resulted solution was then duplicated. The time points of sampling were at 0 min, 5th min, 10th min, 20th min, 30th min and 60th min.
(5) Control group (containing the microsomes, and water instead of D-NADPH): 264 μL of mixed solution 2 for the incubation system was added with 6 μL of the test sample working solution (50 μM), and with 30 μL of water. The resulted solution was well mixed, and the resulted solution was then duplicated. The time points of sampling were at 0 min and 60th min.
(6) 50 μL of sample was taken from an incubating sample tube at each predetermined time point, added to a terminating sample tube (containing 300 μL of cold terminator), and vortexed; and the reaction was terminated.
(7) after 10 mins of vortexing, the solution was centrifuged for 5 mins (12,000 rpm).
(8) 100 μL of supernatant was taken and added with 100 μL of water, and the mixture solution was thoroughly vortexed; and the solution was then analyzed by LC-MS/MS.
Percentages of residual contents were calculated according to the following formula.

Residual content (%) after 60 minutes of incubation [2]: 69%
SMILES: O=C(O)c1ccc2nc(N3C[C@@H]4C[C@H]3C[C@H]4OCc3c(-c4c(Cl)cccc4Cl)noc3C3CC3)sc2c1 [Compound 2-1, 2-((1S, 4S, 5R)-5-((5-cyclopropyl-3-(2,6-dichlorophenyl)isoxazol-4-yl)methoxy)-2-azabicyclo[2.2.1]heptan-2-yl)benzo[d]thiazole-6-carboxylic acid]
Liver Weight/Body Weight ([1]; 1 mg/kg p.o. QD for 3 weeks, increased or decreased ratio of the experimental group to the model group): −9%*
NAFLD Activity Score ([1]; H&E liver slices, 1 mg/kg p.o. QD for 3 weeks, model group 3, p<0.001): 1
effect on the NAFLD symptom of the mice ([1]; at the administration dosage (1 mg/kg)): good improving effect
TG ([1]; liver TG, 1 mg/kg p.o. QD for 3 weeks, increased or decreased ratio of the experimental group to the model group): −53%*
LDL ([1]; serum, 1 mg/kg p.o. QD for 3 weeks, model group 0.31, p<0.01): 0.21

— US11352358B2, “FXR agonist” (XUANZHU BIOPHARMACEUTICAL CO., LTD., priority 2017, dated 2022)
